This passage reports IC50 results from patent US10052306B2 (LUC THERAPEUTICS, INC., priority 2013, dated 2018).

For this assay, the target named is NR1/NR2B (Homo sapiens (Human), UniProt Q05586+Q13224). The experiment in a line: Cell assay: FDSS Ca2+ influx inhibition in HEK293 cells expressing NR1/NR2B.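 Further: Fluo-8 Ca2+ signal read on Hamamatsu FDSS 6000 after glutamate, glycine and Ca2+ challenge following 10 min compound preincubation, end/baseline fluorescence ratio compared with MK801 control.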 Conditions: Ca2+ influx.
Where [1] appears, read: NR2B NAM IC50, HEK293 cells expressing NR1/NR2B.
The mark [2] stands for this setting: Binned Activity, HEK293 cells expressing NR1/NR2B, binned NR2B NAM IC50.

pIC50: −log10 of the molar value.

Sequence of NR1/NR2B (Q13224 27-1484, other chains not shown): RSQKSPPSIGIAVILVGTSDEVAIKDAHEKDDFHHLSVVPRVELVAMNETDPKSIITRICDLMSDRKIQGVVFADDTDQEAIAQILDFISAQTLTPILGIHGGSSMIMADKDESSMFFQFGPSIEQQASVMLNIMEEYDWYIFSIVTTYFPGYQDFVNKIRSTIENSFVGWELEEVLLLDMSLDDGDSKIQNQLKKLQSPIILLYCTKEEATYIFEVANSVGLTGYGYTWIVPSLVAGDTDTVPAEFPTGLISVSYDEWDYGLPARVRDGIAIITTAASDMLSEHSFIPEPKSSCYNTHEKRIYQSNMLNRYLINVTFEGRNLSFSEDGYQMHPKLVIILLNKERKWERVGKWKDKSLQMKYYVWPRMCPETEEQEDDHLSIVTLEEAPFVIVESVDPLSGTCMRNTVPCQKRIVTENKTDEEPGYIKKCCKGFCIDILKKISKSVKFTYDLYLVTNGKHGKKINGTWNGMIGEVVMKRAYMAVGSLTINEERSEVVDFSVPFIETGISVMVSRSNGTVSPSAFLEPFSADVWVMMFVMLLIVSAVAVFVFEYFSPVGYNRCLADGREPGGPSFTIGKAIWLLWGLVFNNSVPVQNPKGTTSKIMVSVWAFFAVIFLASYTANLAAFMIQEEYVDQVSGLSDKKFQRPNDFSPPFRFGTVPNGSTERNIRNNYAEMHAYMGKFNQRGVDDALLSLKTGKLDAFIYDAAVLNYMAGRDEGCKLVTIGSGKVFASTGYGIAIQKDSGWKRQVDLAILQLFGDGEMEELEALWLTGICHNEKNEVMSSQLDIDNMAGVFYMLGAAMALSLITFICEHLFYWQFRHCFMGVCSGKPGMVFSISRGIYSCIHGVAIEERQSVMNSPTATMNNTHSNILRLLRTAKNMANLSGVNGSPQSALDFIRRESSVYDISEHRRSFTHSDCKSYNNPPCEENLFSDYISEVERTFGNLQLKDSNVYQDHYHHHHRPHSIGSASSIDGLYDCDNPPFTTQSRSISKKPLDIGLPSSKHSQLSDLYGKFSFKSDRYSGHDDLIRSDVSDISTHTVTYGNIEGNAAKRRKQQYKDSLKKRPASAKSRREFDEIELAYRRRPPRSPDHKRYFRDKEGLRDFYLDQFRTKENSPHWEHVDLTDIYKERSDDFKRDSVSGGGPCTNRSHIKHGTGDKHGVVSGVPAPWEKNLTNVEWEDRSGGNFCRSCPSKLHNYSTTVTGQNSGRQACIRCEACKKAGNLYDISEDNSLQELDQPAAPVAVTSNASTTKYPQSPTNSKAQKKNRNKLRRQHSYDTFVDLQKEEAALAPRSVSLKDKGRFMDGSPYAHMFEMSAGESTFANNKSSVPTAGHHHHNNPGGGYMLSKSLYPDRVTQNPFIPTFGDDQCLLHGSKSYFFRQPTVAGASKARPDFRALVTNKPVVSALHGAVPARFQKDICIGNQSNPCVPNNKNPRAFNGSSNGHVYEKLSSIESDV

Under setting [1], `Oc1ccc(C(O)CN2C[C@@H]3C[C@@](O)(Cc4c(F)cccc4F)C[C@@H]3C2)nc1` (mixture of isomers) [Example 240, rac-6-{2-[(3aR,5R,6aS)-5-[(2,6-difluorophenyl)methyl]-5-hydroxy-octahydrocyclopenta[c]pyrrol-2-yl]-1-hydroxyethyl}pyridin-3-ol] had a negative logarithm of the IC50 (pIC50) of 7.16.
With `Oc1ccc(C(O)CN2C[C@@H]3C[C@@](O)(Cc4ccccn4)C[C@@H]3C2)cc1` (mixture of isomers) [Example 232, rac-(3aR,5r,6aS)-2-(2-hydroxy-2-(4-hydroxyphenyl)ethyl)-5-(pyridin-2-ylmethyl)octahydrocyclo-penta[c]pyrrol-5-ol], the pIC50 under setting [1] is 6.17. This pIC50 is 0.99 log units lower than that of the compound before.
On the same count and under the same terms, the figure for `CC(C(=O)c1ccc(O)cc1)N1C[C@@H]2C[C@@](O)(CCc3ccccc3)C[C@@H]2C1` (mixture of isomers) [Example 319, rac-2-(5-hydroxy-5-phenethylhexa-hydrocyclo-penta[c]pyrrol-2(1H)-yl)-1-(4-hydroxyphenyl)propan-1-one] is 6.30; for `Oc1ccc(C(O)CN2C[C@@H]3C[C@@](O)(Cc4ccc(C(F)(F)F)cc4)C[C@@H]3C2)cc1` (mixture of isomers) [Example 224, rac-(3aR,5R,6aS)-2-[2-hydroxy-2-(4-hydroxyphenyl)ethyl]-5-{[4-(trifluoromethyl)phenyl]methyl}-octahydrocyclopenta[c] pyrrol-5-ol] it is 7.07.
For `COc1cccc([C@]2(O)C[C@H]3CN(C(C)C(O)c4ccc(O)cc4)C[C@H]3C2)c1` (mixture of isomers) [Example 78, rac-2-(1-hydroxy-1-(4-hydroxyphenyl)propan-2-yl)-5-(3-methoxy-phenyl)octahydro-cyclopenta[c]pyrrol-5-ol], the pIC50 is under 5.00 under setting [2] and at most 5.00 under setting [1].
In the case of `N#Cc1cccc(NC(=O)N2C[C@@H]3C[C@@](O)(c4ccc(F)cc4)C[C@@H]3C2)c1` [Example 40], the pIC50 under setting [2] was under 5.00.
Regarding `CC(C)(C)c1ccc([C@]2(O)C[C@H]3CN(CC(O)c4cccc(C(F)(F)F)c4)C[C@H]3C2)cc1` (mixture of isomers) [Example 70, rac-5-(4-(tert-butyl)phenyl)-2-(2-hydroxy-2-(3-(trifluoromethyl)phenyl)ethyl)octahydrocyclo-penta[c]pyrrol-5-ol], the negative logarithm of the IC50 (pIC50) by setting is: under setting [2], under 5.00; under setting [1], at most 5.00.
For `Oc1ccc(C(O)CN2C[C@@H]3C[C@@](O)(Cc4ccccc4F)C[C@@H]3C2)cc1` (mixture of isomers) [Example 229, rac-(3aR,5r,6aS)-5-(2-fluorobenzyl)-2-(2-hydroxy-2-(4-hy-droxyphenyl)ethyl)octa-hydrocyclopenta[c] pyrrol-5-ol], the pIC50 under setting [2] is over 7.00 and the pIC50 under setting [1] is 7.81.
Under setting [1], `CO[C@@]1(Cc2ccccc2)C[C@H]2CN(CC(O)c3ccc(O)c(F)c3)C[C@H]2C1` (mixture of isomers) [Example 175, rac-4-(2-((3aR,5r,6aS)-5-benzyl-5-methoxyhexahydrocyclo-penta[c]pyrrol-2(1H)-yl)-1-hydroxyethyl)-2-fluorophenol] showed a negative logarithm of the IC50 (pIC50) of 7.49.
The same measure, in the same setting: the figure for `CS(=O)(=O)Nc1ccc(C(O)CN2C[C@@H]3C[C@@](O)(Cc4ccccc4)C[C@@H]3C2)cc1` (mixture of isomers) [Example 150, rac-N-(4-(2-((3aR,5r,6aS)-5-benzyl-5-hydroxyhexahydrocyclo-penta[c]pyrrol-2(1H)-yl)-1-hydroxy-ethyl)phenyl)meth-anesulfonamide] is 7.33.
The compound `COc1cccc([C@]2(O)C[C@H]3CN(C(=O)Nc4ccc(C)cc4)C[C@H]3C2)c1` [Example 14] showed a pIC50 under setting [2] of under 5.00 and a pIC50 under setting [1] of at most 5.00.
In turn, `COc1cccc(C[C@]2(O)C[C@H]3CN(CC(O)c4ccc(O)cn4)C[C@H]3C2)c1` (mixture of isomers) [Example 196, rac-((3aR,r,6aS)-2-(2-hydroxy-2-(5-hydroxypyridin-2-yl)ethyl)-5-(3-meth-oxybenzyl)octahydro-cyclopenta[c]pyrrol-5-ol] had a pIC50 under setting [1] of 7.18.
Under setting [1], `CO[C@@]1(Cc2ccccc2)C[C@H]2CN(CC(O)c3ccc(O)cn3)C[C@H]2C1` (mixture of isomers) [Example 177, rac-6-(2-((3aR,5r,6aS)-5-benzyl-5-methoxyhexahydrocyclo-penta[c]pyrrol-2(1H)-yl)-1-hydroxyethyl)pyridin-3-ol] showed a pIC50 of 7.50.
On the same count and under the same terms, the figure for `Oc1ccc(C(O)CN2C[C@H]3C[C@H](Cc4ccccc4)C[C@H]3C2)cc1F` (mixture of isomers) [Example 302, rac-4-{2-[(3aR,5R,6aS)-5-benzyl-octahydrocyclopenta[c]pyrrol-2-yl]-1-hydroxyethyl}-2-fluorophenol] is 7.70; for `Cc1cc(F)ccc1C[C@]1(O)C[C@H]2CN(CC(O)c3ccc(O)cn3)C[C@H]2C1` (mixture of isomers) [Example 243, rac-(3aR,5r,6aS)-5-(4-fluoro-2-methylbenzyl)-2-(2-hydroxy-2-(5-hydroxypyridin-2-yl)ethyl)octahydrocyclo-penta[c]pyrrol-5-ol] it is 7.12.
Regarding `OC(CN1C[C@@H]2C[C@@](O)(Cc3ccccc3)C[C@@H]2C1)c1cccc(C(F)(F)F)c1` (mixture of isomers) [Example 288, rac-(3aR,5r,6aS)-benzyl-2-(2-hydroxy-2-(3-(trifluoromethyl)phenyl)ethyl)octahydrocyclo-penta[c]pyrrol-5-ol], the pIC50 was under 5.00 under setting [2] and at most 5.00 under setting [1].
For the compound `Oc1cnc(C(O)CN2C[C@@H]3C[C@@](O)(Cc4ccccc4)C[C@@H]3C2)nc1` (mixture of isomers) [Example 203, rac-2-{2-[(3aR,5R,6aS)-5-benzyl-5-hydroxy-octahydrocyclopenta[c]pyrrol-2-yl]-1-hydroxyethyl}pyrimidin-5-ol], the pIC50 is, setting by setting: under setting [2], 5.00 to 6.00; under setting [1], 5.47.
On to `CC(O)(CN1CC2CC(O)(Cc3ccccc3)CC2C1)c1ccc(O)cc1` (racemic) [Example 280, rac-(3aR,5R,6aS)-5-benzyl-2-[2-hydroxy-2-(4-hydroxyphenyl)propyl]-octahydrocyclopenta[c] pyrrol-5-ol], for which the pIC50 is over 7.00 under setting [2] and 7.37 under setting [1].
In the same order, the values of `Oc1ccc(C(O)CN2C[C@H]3CC(Cc4ccccc4)C[C@H]3C2)cc1` (mixture of isomers) [Example 300, rac-4-(2-((3aR,6aS)-5-benzylhexahydrocyclo-penta[c]pyrrol-2(1H)-yl)-1-hydroxyethyl) phenol] are over 7.00 and 7.86.
In the same order, the values of `OC(CN1C[C@@H]2C[C@@](O)(c3ccccc3)C[C@@H]2C1)c1ccccc1` (mixture of isomers) [Example 58, rac-2-(2-hydroxy-2-phenylethyl)-5-phenyloctahydrocyclo-penta[c]pyrrol-5-ol] are under 5.00 and at most 5.00.
Turning to `Cc1ccccc1[C@]1(O)C[C@H]2CN(C(=O)Nc3cccc(C#N)c3)C[C@H]2C1` [Example 31, N-(3-cyanophenyl)-5-hydroxy-5-(2-methylphenyl)-octahydrocyclopenta[c] pyrrole-2-carboxamide], the pIC50 under setting [2] is under 5.00.
As to `CC(C)(O)c1ccc(C(O)CN2C[C@@H]3C[C@@](O)(c4ccccc4)C[C@@H]3C2)cc1` (mixture of isomers) [Example 69, rac-2-(2-hydroxy-2-(4-(2-hydroxypropan-2-yl)phenyl)ethyl)-5-phenyloctahydrocyclo-penta[c]pyrrol-5-ol], the pIC50 under setting [2] was under 5.00 and the pIC50 under setting [1] was at most 5.00.
With `Oc1ccc(C(O)CN2C[C@@H]3C[C@@](O)(Cc4ccc(F)cc4)C[C@@H]3C2)cc1F` (mixture of isomers) [Example 171, rac-(3aR,5r,6aS)-2-(2-(3-fluoro-4-hydroxyphenyl)-2-hydroxyethyl)-5-(4-fluorobenzyl)octahydro-cyclopenta[c]pyrrol-5-ol], under setting [1], the pIC50 was 7.66.
For `Oc1ccc(C(O)CN2C[C@@H]3C[C@@](O)(Cc4ccc(Cl)cc4)C[C@@H]3C2)nc1` (mixture of isomers) [Example 223, rac-(3aR,5r,6aS)-5-(4-chlorobenzyl)-2-(2-hydroxy-2-(5-hydroxypyridin-2-yl)ethyl)octahydrocyclo-penta[c]pyrrol-5-ol], the pIC50 is, setting by setting: under setting [2], over 7.00; under setting [1], 7.94.
In the same order, the values of `COc1cccc(NC(=O)N2C[C@@H]3C[C@@](O)(c4ccccc4C)C[C@@H]3C2)c1` are under 5.00 and at most 5.00.
For the compound `Cc1cc(C)cc(C[C@]2(O)C[C@H]3CN(CC(O)c4ccc(O)cc4)C[C@H]3C2)c1` (mixture of isomers) [Example 213, rac-(3aR,5R,6aS)-5-[(3,5-dimethylphenyl)methyl]-2-[2-hydroxy-2-(4-hydroxyphenyl)ethyl]-octahydrocyclopenta[c] pyrrol-5-ol], under setting [1], the pIC50 was 6.25.
Consider `COc1cccc(NC(=O)N2C[C@@H]3C[C@@](O)(c4ccccc4)C[C@@H]3C2)c1` [Example 7], for which the negative-log IC50 (pIC50) is under 5.00 under setting [2] and at most 5.00 under setting [1].
As to `COc1ccc(NC(=O)N2C[C@@H]3C[C@@](O)(c4cccc(OC)c4)C[C@@H]3C2)cc1` [Example 17, 5-hydroxy-5-(3-methoxyphenyl)-N-(4-methoxyphenyl)-octahydrocyclopenta[c] pyrrole-2-carboxamide], under setting [2], the pIC50 is under 5.00.
In turn, `C[C@@H](NC(=O)N1C[C@@H]2C[C@@](O)(c3ccccc3)C[C@@H]2C1)c1ccc(Cl)cc1` [Example 20, N-[(1R)-1-(4-chlorophenyl)ethyl]-5-hydroxy-5-phenyl-octahydrocyclopenta[c] pyrrole-2-carboxamide] gave a pIC50 under setting [2] of under 5.00.
In the case of `Oc1ccc(C(O)CN2C[C@@H]3C[C@@](O)(Cc4ccccc4F)C[C@@H]3C2)nc1` (mixture of isomers) [Example 228, rac-5-(2-fluorobenzyl)-2-(2-hydroxy-2-(5-hydroxypyridin-2-yl)ethyl)octahydrocyclo-penta[c]pyrrol-5-olyl)ethanone], the pIC50 is over 7.00 under setting [2] and 7.39 under setting [1].
`Oc1ccc(C(O)CN2C[C@@H]3C[C@@](O)(Cc4ccccc4)C[C@@H]3C2)cc1` (mixture of isomers) [Example 131, rac-(3aR,5r,6aS)-5-benzyl-2-(2-hydroxy-2-(4-hydroxyphenyl)ethyl)octa-hydrocyclopenta[c]pyrrol-5-ol]: the pIC50 under setting [2] was over 7.00 and the pIC50 under setting [1] is 7.59.

The pIC50 is −log10 of the IC50, conventionally taken in molar units. Read a low pIC50 as a high IC50.
